Entries after “also recorded” stand apart in the source; their conditions may differ.
Experiments:
TLR7 = target: T1, TLR7 (Mus musculus, UniProt P58681); assay: TNF-α secretion ELISA after TLR7 agonist imiquimod (IMQ) in RAW 264.7 cells; assay type: cell-based; conditions: SK21 to SK82 at 0.5 μM or 2 μM, Imiquimod 1 μg/ml
T1 construct: endogenous in cells; host or cells: RAW 264.7
T1 sequence (P58681 27-1050): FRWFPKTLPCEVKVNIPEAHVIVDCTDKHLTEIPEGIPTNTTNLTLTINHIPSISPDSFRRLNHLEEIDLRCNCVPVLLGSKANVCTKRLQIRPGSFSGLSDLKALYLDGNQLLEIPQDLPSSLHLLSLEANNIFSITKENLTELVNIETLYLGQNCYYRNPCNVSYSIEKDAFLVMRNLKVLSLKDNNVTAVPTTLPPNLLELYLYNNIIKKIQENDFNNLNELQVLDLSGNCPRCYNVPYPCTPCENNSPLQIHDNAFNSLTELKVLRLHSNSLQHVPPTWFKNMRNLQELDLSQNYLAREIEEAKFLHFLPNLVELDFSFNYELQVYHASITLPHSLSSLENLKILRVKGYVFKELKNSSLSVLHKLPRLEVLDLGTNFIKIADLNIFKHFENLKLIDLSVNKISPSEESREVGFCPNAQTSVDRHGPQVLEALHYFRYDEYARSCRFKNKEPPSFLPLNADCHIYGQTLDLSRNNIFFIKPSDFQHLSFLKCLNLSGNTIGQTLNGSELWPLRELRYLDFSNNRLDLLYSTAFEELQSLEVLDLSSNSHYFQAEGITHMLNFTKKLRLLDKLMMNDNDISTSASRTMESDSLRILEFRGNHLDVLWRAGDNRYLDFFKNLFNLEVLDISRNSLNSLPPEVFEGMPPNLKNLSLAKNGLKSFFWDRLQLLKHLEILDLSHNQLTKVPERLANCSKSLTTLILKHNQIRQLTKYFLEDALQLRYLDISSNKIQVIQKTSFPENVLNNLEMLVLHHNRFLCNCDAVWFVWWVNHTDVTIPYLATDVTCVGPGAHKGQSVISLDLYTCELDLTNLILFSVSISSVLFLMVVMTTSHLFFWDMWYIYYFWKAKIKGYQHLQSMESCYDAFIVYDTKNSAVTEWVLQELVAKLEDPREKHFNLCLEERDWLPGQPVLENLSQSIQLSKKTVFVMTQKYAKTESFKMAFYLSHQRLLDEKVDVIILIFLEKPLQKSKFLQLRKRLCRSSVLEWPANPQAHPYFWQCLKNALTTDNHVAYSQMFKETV
Method: (§1) In order to determine the inhibitory activities of the test-ligand, RAW 264.7 cells were pretreated with each candidate compound for 1 hour, then treated with Pam3CSK4 (synthetic triacyl lipopeptide; TLR1/2, Invitrogen), FSL-1 (synthetic diacyl lipoprotein, TLR2/6, 100 ng/ml), lipopolysaccharide (LPS, TLR4, Sigma Aldrich), imiquimod (IMQ, TLR7, Invitrogen), and ODN2395 (type C CpG repeat motif DNA oligo(5′-[…]-3), TLR9, Bioneer) ligand for 4 hours, and treated with poly I:C (I:C repeat motif double-stranded RNA, TLR3, Invitrogen) and TL8-506 (TLR8, Invitrogen) showing delayed reactivity for 24 hours. After activation of TLR, the supernatant was diluted in an appropriate ratio so as to measure within the standard dose range, transferred to a pre-coated 96-well assay plate, and then treated with mouse TNF-alpha secretion level in accordance with the manufacturer's instructions using a mouse-TNF-alpha ELISA-kit (Invitrogen).
(§2) In order to plot the concentration-dependent LC50 curves, treatment with the SK series ligands at different concentrations up to 200 μM (the highest concentration that could be treated within the level of 0.5% DMSO) was performed. Then, cell viability and toxicity response upon treatment with ligands were analyzed by MTT as described in Examples 1-3. Cell viability in each plot was normalized from negative control (100%; no treatment) to positive control (highest concentration of test-ligand), and LC50 was determined by non-linear regression (Graph Pad Prism 7.0). In order to plot the concentration-dependent IC50 curves, pre-treatment with the SK series ligands was performed at different concentrations up to 50 μM (twice the initial concentration). Cell responses mediated by TLR7 and TLR9 (levels of TNF-α secretion) were analyzed by ELISA as described in Examples 1-4. The cytokine level in each plot was normalized from negative control (non-treated) to positive control (treatment with ligand), and IC50 was determined by non-linear regression (Graph Pad Prism 7.0).
(§3) In order to select potential inhibitory molecules against TLR3/TLR7/TLR8/TLR9 activation, first, MTT (3-(4,5-dimethylthiazol-2-yl)-2,5-diphenyltetrazolium bromide) cell viability assay (FIG. 7) was performed upon treatment with a set of ligands from SK21 to SK82 at a concentration of 20 μM and the inhibitory activity thereof was evaluated by an ELISA assay to monitor the level of TNF-α secretion in RAW 264.7 cells. The experimental ligands from SK21 to SK82 were administered at 0.5 μM or 2 μM to the RAW 264.7 cells and stimulated with Imiquimod (TLR7, 1 μg/ml) and OND2395 (TLR9, 0.5 μM).

TLR9 = target: T2, TLR9 (Mus musculus, UniProt Q9EQU3); assay: TNF-α secretion ELISA after TLR9 agonist ODN2395 in RAW 264.7 cells; assay type: cell-based; conditions: SK21 to SK82 at 0.5 μM or 2 μM, ODN2395 0.5 μM
T2 construct: endogenous in cells; host or cells: RAW 264.7
T2 sequence (Q9EQU3 26-1032): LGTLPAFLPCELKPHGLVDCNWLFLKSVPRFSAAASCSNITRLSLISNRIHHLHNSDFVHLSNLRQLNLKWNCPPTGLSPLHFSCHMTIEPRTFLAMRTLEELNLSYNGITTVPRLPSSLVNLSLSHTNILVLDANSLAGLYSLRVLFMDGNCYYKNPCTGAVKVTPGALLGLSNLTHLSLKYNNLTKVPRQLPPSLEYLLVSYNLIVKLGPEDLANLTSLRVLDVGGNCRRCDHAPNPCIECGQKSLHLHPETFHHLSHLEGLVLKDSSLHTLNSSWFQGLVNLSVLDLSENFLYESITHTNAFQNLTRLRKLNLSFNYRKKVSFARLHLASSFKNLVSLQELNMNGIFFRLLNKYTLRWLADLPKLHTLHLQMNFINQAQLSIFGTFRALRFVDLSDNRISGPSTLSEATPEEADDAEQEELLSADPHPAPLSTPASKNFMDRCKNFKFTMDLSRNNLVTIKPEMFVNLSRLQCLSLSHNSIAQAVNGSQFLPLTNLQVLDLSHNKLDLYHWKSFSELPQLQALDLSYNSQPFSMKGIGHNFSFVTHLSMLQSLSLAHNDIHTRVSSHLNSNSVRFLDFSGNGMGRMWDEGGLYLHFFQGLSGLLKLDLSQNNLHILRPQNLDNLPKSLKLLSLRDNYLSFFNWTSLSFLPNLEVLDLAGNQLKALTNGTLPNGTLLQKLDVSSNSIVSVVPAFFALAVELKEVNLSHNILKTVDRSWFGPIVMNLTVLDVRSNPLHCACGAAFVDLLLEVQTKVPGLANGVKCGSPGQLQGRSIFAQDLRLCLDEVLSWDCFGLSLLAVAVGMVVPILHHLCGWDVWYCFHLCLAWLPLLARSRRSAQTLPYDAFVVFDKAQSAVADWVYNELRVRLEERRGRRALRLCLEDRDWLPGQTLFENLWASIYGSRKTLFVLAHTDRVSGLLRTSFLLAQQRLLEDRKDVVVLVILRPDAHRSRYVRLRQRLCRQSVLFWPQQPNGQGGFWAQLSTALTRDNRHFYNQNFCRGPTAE
Method: as §1, §2, §3

Structure (SMILES) | inhibitory activity against TLR7 (level of TNF-α secretion) (TLR7) | inhibitory activity against TLR9 (level of TNF-α secretion) (TLR9)
Cc1c(C)n(CCCN(C)Cc2ccccc2)c2nc3c(c(N)c12)CCCCC3 [SK23, 1-(3-(benzyl(methyl)amino)propyl)-2,3-dimethyl-1,5,6,7,8,9-hexahydrocyclohepta[b]pyrrolo[3,2-e]pyridin-4-amine] | significant inhibitory activity; also recorded: significantly reduced | significant inhibitory activity; also recorded: significantly reduced
CNCCCn1c(C)c(C)c2c(N)c3c(nc21)CCCCC3 [SK24, 2,3-dimethyl-1-(3-(methylamino)propyl)-1,5,6,7,8,9-hexahydrocyclohepta[b]pyrrolo[3,2-e]pyridin-4-amine] | significant inhibitory activity; also recorded: significantly reduced | significant inhibitory activity; also recorded: significantly reduced
Cc1cc2c(N)c3c(nc2n1CCCN(C)C)CCCCC3 [SK29, 1-(3-(dimethylamino)propyl)-2-methyl-1,5,6,7,8,9-hexahydrocyclohepta[b]pyrrolo[3,2-e]pyridin-4-amine] | significant inhibitory activity; also recorded: significantly reduced | significant inhibitory activity; also recorded: significantly reduced
Cc1c(C)n(CCCN(C)C)c2nc3c(c(N)c12)CCCC3 [SK36, 1-(3-(dimethylamino)propyl)-2,3-dimethyl-5,6,7,8-tetrahydro-1H-pyrrolo[2,3-b]quinolin-4-amine] | significant inhibitory activity; also recorded: significantly reduced | significant inhibitory activity; also recorded: significantly reduced
Cc1cc2c(N)c3c(nc2n1CCCN(C)C)CCCC3 [SK39, 1-(3-(dimethylamino)propyl)-2-methyl-5,6,7,8-tetrahydro-1H-pyrrolo[2,3-b]quinolin-4-amine] | significant inhibitory activity; also recorded: significantly reduced | significant inhibitory activity; also recorded: significantly reduced
CCc1nc2c(cc(C)n2CCCN(C)C)c(N)c1C [SK40, 1-(3-(dimethylamino)propyl)-6-ethyl-2,5-dimethyl-1H-pyrrolo[2,3-b]pyridin-4-amine] | significant inhibitory activity; also recorded: significantly reduced | significant inhibitory activity; also recorded: significantly reduced
CN(C)CCCn1c2ccccc2c2c(N)c3c(nc21)CCCC3 [SK52, 6-(3-(dimethylamino)propyl)-2,3,4,6-tetrahydro-1H-indolo[2,3-b]quinolin-11-amine] | significant inhibitory activity; also recorded: significantly reduced | significant inhibitory activity; also recorded: significantly reduced
CNCCCn1c2ccc(OC)cc2c2c(N)c3c(nc21)CCCC3 [SK54, 9-methoxy-6-(3-(methylamino)propyl)-2,3,4,6-tetrahydro-1H-indolo[2,3-b]quinolin-11-amine] | significant inhibitory activity; also recorded: significantly reduced | significant inhibitory activity; also recorded: significantly reduced
CNCCCn1c2ccccc2c2c(N)c3c(nc21)CCCC3 [SK55, 6-(3-(methylamino)propyl)-2,3,4,6-tetrahydro-1H-indolo[2,3-b]quinolin-11-amine] | significant inhibitory activity; also recorded: significantly reduced | significant inhibitory activity; also recorded: significantly reduced
CN(C)CCCn1c2ccc(F)cc2c2c(N)c3c(nc21)CCCC3 [SK59, 6-(3-(dimethylamino)propyl)-9-fluoro-2,3,4,6-tetrahydro-1H-indolo[2,3-b]quinolin-11-amine] | significant inhibitory activity; also recorded: significantly reduced | significant inhibitory activity; also recorded: significantly reduced
CN(C)CCCn1c2ccc(Cl)cc2c2c(N)c3c(nc21)CCCC3 [SK60, 9-chloro-6-(3-(dimethylamino)propyl)-2,3,4,6-tetrahydro-1H-indolo[2,3-b]quinolin-11-amine] | significant inhibitory activity; also recorded: significantly reduced | significant inhibitory activity; also recorded: significantly reduced

From patent US12516058B2, “Small-molecule compounds for controlling endosomal toll-like receptors and therapeutic agent for autoimmune diseases using same” (priority 2020, dated 2026)
